Experimental data published in patent publication US6987114B1, “Antiviral pyrimidinedione derivatives and process for the preparation thereof” (Samjin Pharmaceutical Co., Ltd, priority 1999, dated 2006).
Converted amounts (≈) assume the structure as drawn. Read-outs that look alike come from different tables or passages of the source.

What was measured:
HIV = assay: microbe, parasite or virus in culture; type: cell-based
Method: Anti-HIV activity tests in vitro of the compounds according to the present invention were performed as described in J. Med. Chem, 34, 357, 1991. Inhibition by the compounds of virus-induced cytotoxic effect in MT-4 cells was measured as follows.
(§1) MT-4 cells were suspended in culture media at 2.5×10^5 cells/ml and infected with 1000 CCID50 (50% cell culture infective dose) of HIV. Immediately after virus infection, 100 μl of cell suspension was brought into each well of a flat-bottomed microtitray containing various concentrations of the test compounds. After 4 or 5 days incubation at 37° C., efficacy of the compounds was determined by the MTT method. Cytotoxicity of the compounds was assessed in parallel with their antiviral activity, based on viability of mock-infected host cells as determined by the MTT method.

mock-infected MT-4 cells = assay: Cytotoxicity based on viability of mock-infected host cells (MTT method); type: cell-based; conditions: mock-infected MT-4 cells, MTT method, 4 or 5 days at 37° C.
Method: as §1

[1] = Human immunodeficiency virus 1, MT4, HIV-infected MT-4 cells, MTT method, 4 or 5 days at 37° C., read-out: ED50 (the source's name)
[2] = Human immunodeficiency virus 1, MT4, read-out: ED50

| SMILES | EC50 (HIV; [1]) | melting point | CD50 (mock-infected MT-4 cells) | EC50 (HIV; [2]) |
| --- | --- | --- | --- | --- |
| Cc1cc(C)cc(Cn2c(Sc3cc(C)cc(C)c3)c(C(C)C)c(=O)[nH]c2=O)c1 [Example 50, 1-(3,5-Dimethylbenzyl)-5-isopropyl-6-(3,5-dimethylphenyl)thio-2,4-pyrimidinedione] | – | 164 to 166 °C | 8.70 µg/mL | 0.015 µg/mL (≈ 0.0367 µM) |
| Cc1cc(C)cc(C(=O)c2c(C(C)C)c(=O)[nH]c(=O)n2CC2CCCCC2)c1 [Example 18, 1-(Cyclohexyl)methyl-5-isopropyl-6-(3,5-dimethylbenzoyl)-2,4-pyrimidinedione] | – | 160 to 162 °C | 8.00 µg/mL | 0.013 µg/mL (≈ 0.034 µM) |
| Cc1cc(C)cc(Sc2c(C(C)C)c(=O)[nH]c(=O)n2Cc2cc(Br)cc(Br)c2)c1 [Example 86, 1-(3,5-Dibromobenzyl)-5-isopropyl-6-(3,5-dimethylphenyl)thio-2,4-pyrimidinedione] | – | 225 to 226 °C | 2.11 µg/mL | 0.094 µg/mL (≈ 0.175 µM) |
| CCc1c(C(=O)c2cc(C)cc(C)c2)n(Cc2cccnc2)c(=O)[nH]c1=O [Example 119, 1-(Pyridin-3-ylmethyl)-5-ethyl-6-(3,5-dimethylbenzoyl)-2,4-pyrimidinedione] | – | 170 to 172 °C | 39.00 µg/mL | 0.0038 µg/mL (≈ 0.0105 µM) |
| CCC(=O)Cn1c(C(=O)c2cc(C)cc(C)c2)c(C(C)C)c(=O)[nH]c1=O [Example 164, 1-(2-Butanon-1-yl)-5-isopropyl-6-(3,5-dimethylbenzoyl)-2,4-pyrimidinedione] | – | 174 to 176 °C | 20.58 µg/mL | 0.0026 µg/mL (≈ 0.00729 µM) |
| Cc1cc(C)cc(Oc2c(C(C)C)c(=O)[nH]c(=O)n2Cc2c3ccccc3cc3ccccc23)c1 [Example 100, 1-(Anthracen-9-ylmethyl)-5-isopropyl-6-(3,5-dimethyl-phenoxy)-2,4-pyrimidinedione] | – | 224 to 226 °C | 2.02 µg/mL | > 2.02 µg/mL |
| Cc1cc(C)cc(Sc2c(C(C)C)c(=O)[nH]c(=O)n2Cc2cccc(C#N)c2)c1 [Example 44, 1-(3-Cyanobenzyl)-5-isopropyl-6-(3,5-dimethylphenyl)thio-2,4-pyrimidinedione] | – | 186 to 188 °C | 8.88 µg/mL | 0.008 µg/mL (≈ 0.0197 µM) |
| CC(=O)Cn1c(C(=O)c2cc(C)cc(C)c2)c(C(C)C)c(=O)[nH]c1=O [Example 160, 1-(Acetonyl)-5-isopropyl-6-(3,5-dimethylbenzoyl)-2,4-pyrimidinedione] | – | 181 to 183 °C | 14.0 µg/mL | 0.0005 µg/mL (≈ 0.00146 µM) |
| Cc1cc(C)cc(Oc2c(C(C)C)c(=O)[nH]c(=O)n2Cc2cccnc2)c1 [Example 118, 1-(Pyridin-3-ylmethyl)-5-isopropyl-6-(3,5-dimethylphenoxy)-2,4-pyrimidinedione] | – | 190 to 193 °C | 33.50 µg/mL | 0.015 µg/mL (≈ 0.041 µM) |
| CCc1c(C(=O)c2cc(C)cc(C)c2)n(Cc2ccc3c(c2)C(=O)c2ccccc2C3=O)c(=O)[nH]c1=O [Example 107, 1-(Anthraquinon-2-ylmethyl)-5-ethyl-6-(3,5-dimethylbenzoyl)-2,4-pyrimidinedione] | 0.026 µg/mL (≈ 0.0528 µM) | 143 to 146 °C | 2.38 µg/mL | – |
| CCc1c(Oc2cc(C)cc(C)c2)n(Cc2cc(F)cc(F)c2)c(=O)[nH]c1=O [Example 75, 1-(3,5-Difluorobenzyl)-5-ethyl-6-(3,5-dimethylphenoxy)-2,4-pyrimidinedione] | > 14.3 µg/mL | 178 to 180 °C | 14.30 µg/mL | – |
| CCc1c(C(=O)c2cc(C)cc(C)c2)n(Cc2cc(F)ccc2F)c(=O)[nH]c1=O [Example 71, 1-(2,5-Difluorobenzyl)-5-ethyl-6-(3,5-dimethylbenzoyl)-2,4-pyrimidinedione] | 0.004 µg/mL (≈ 0.01 µM) | 135 to 137 °C | >100.00 µg/mL | – |
| Cc1cc(C)cc(C(=O)c2c(C(C)C)c(=O)[nH]c(=O)n2Cc2cccnc2)c1 [Example 120, 1-(Pyridin-3-ylmethyl)-5-isopropyl-6-(3,5-dimethylbenzoyl)-2,4-pyrimidinedione] | – | 178 to 180 °C | 8.80 µg/mL | 0.002 µg/mL (≈ 0.0053 µM) |
| Cc1cc(C)cc(C(=O)c2c(C(C)C)c(=O)[nH]c(=O)n2Cc2cc(Cl)cc(Cl)c2)c1 [Example 84, 1-(3,5-Dichlorobenzyl)-5-isopropyl-6-(3,5-dimethylbenzoyl)-2,4-pyrimidinedione] | – | 220 to 222 °C | 7.88 µg/mL | 0.024 µg/mL (≈ 0.0539 µM) |
| Cc1cc(C)cc(Oc2c(C(C)C)c(=O)[nH]c(=O)n2Cc2cccc(C#N)c2)c1 [Example 46, 1-(3-Cyanobenzyl)-5-isopropyl-6-(3,5-dimethylphenoxy)-2,4-pyrimidinedione] | – | 160 to 162 °C | 9.20 µg/mL | 0.023 µg/mL (≈ 0.0591 µM) |
| COc1cc(Cn2c(Sc3cc(C)cc(C)c3)c(C(C)C)c(=O)[nH]c2=O)cc(OC)c1 [Example 56, 1-(3,5-Dimethoxybenzyl)-5-isopropyl-6-(3,5-dimethyl-phenyl)thio-2,4-pyrimidinedione] | 0.21 µg/mL (≈ 0.477 µM) | 157 to 160 °C | 11.34 µg/mL | – |
| CCc1c(Oc2cc(C)cc(C)c2)n(Cc2cc(C(F)(F)F)cc(C(F)(F)F)c2)c(=O)[nH]c1=O [Example 63, 1-[3,5-Bis(Trifluoromethyl)benzyl]-5-ethyl-6-(3,5-dimethyl-phenoxy)-2,4-pyrimidinedione] | > 100 µg/mL | 183 to 185 °C | >100.00 µg/mL | – |
| CCc1c(Sc2cc(C)cc(C)c2)n(Cc2cc(F)cc(F)c2)c(=O)[nH]c1=O [Example 73, 1-(3,5-Difluorobenzyl)-5-ethyl-6-(3,5-dimethylphenyl)thio-2,4-pyrimidinedione] | 0.016 µg/mL (≈ 0.0398 µM) | 219 to 221 °C | >100.00 µg/mL | – |
| CCc1c(Oc2cc(C)cc(C)c2)n(CC(C)=O)c(=O)[nH]c1=O [Example 157, 1-(Acetonyl)-5-ethyl-6-(3,5-dimethylphenoxy)-2,4-pyrimidinedione] | – | 162 to 165 °C | 3.6 µg/mL | 0.0119 µg/mL (≈ 0.0376 µM) |

Now from value to molecule, other results behind:

| EC50 (HIV; [1]) | melting point | SMILES | CD50 (mock-infected MT-4 cells) | EC50 (HIV; [2]) |
| --- | --- | --- | --- | --- |
| 0.006 µg/mL (≈ 0.0152 µM) | 158 to 159 °C | COc1cccc(Cn2c(Oc3cc(C)cc(C)c3)c(C(C)C)c(=O)[nH]c2=O)c1 [Example 28, 1-(3-Methoxybenzyl)-5-isopropyl-6-(3,5-dimethylphenoxy)-2,4-pyrimidinedione] | 30.60 µg/mL | – |
| 0.071 µg/mL (≈ 0.166 µM) | 181 to 183 °C | CCc1c(Sc2cc(C)cc(C)c2)n(Cc2cc(OC)cc(OC)c2)c(=O)[nH]c1=O [Example 55, 1-(3,5-Dimethoxybenzyl)-5-ethyl-6-(3,5-dimethylphenyl)thio-2,4-pyrimidinedione] | 10.8 µg/mL | – |
| 0.003 µg/mL (≈ 0.00753 µM) | 165 to 167 °C | CCc1c(C(=O)c2cc(C)cc(C)c2)n(Cc2cc(F)cc(F)c2)c(=O)[nH]c1=O [Example 77, 1-(3,5-Difluorobenzyl)-5-ethyl-6-(3,5-dimethylbenzoyl)-2,4-pyrimidinedione] | 7.0 µg/mL | – |
| 0.003 µg/mL (≈ 0.00731 µM) | 135 to 137 °C | COc1cccc(Cn2c(Sc3cc(C)cc(C)c3)c(C(C)C)c(=O)[nH]c2=O)c1 [Example 26, 1-(3-Methoxybenzyl)-5-isopropyl-6-(3,5-dimethylphenyl)thio-2,4-pyrimidinedione] | 9.53 µg/mL | – |
| 0.31 µg/mL (≈ 0.734 µM) | 208 to 210 °C | CCc1c(C(=O)c2cc(C)cc(C)c2)n(Cc2cc(OC)cc(OC)c2)c(=O)[nH]c1=O [Example 59, 1-(3,5-Dimethoxybenzyl)-5-ethyl-6-(3,5-dimethylbenzoyl)-2,4-pyrimidinedione] | 69.00 µg/mL | – |
| 0.0027 µg/mL (≈ 0.00793 µM) | 200 to 202 °C | CCc1c(C(=O)c2cc(C)cc(C)c2)n(CC2CCC2)c(=O)[nH]c1=O [Example 11, 1-(Cyclobutyl)methyl-5-ethyl-6-(3,5-dimethylbenzoyl)-2,4-pyrimidinedione] | 89.1 µg/mL | – |
| 0.044 µg/mL (≈ 0.109 µM) | 278 to 279 °C | Cc1cc(C)cc(Oc2c(C(C)C)c(=O)[nH]c(=O)n2Cn2nnc3ccccc32)c1 [Example 142, 1-(1H-benzotriazol-1-ylmethyl)-5-isopropyl-6-(3,5-dimethylphenoxy)-2,4-pyrimidinedione] | >100.00 µg/mL | – |
| 0.0022 µg/mL (≈ 0.00646 µM) | 193 to 195 °C | Cc1cc(C)cc(C(=O)c2c(C(C)C)c(=O)[nH]c(=O)n2CC2CC2)c1 [Example 6, 1-(Cyclopropyl)methyl-5-isopropyl-6-(3,5-dimethylbenzoyl)-2,4-pyrimidinedione] | 8.5 µg/mL | – |
| 0.619 µg/mL (≈ 1.65 µM) | 267 to 270 °C | CCc1c(Oc2cc(C)cc(C)c2)n(Cc2ccccc2C#N)c(=O)[nH]c1=O [Example 39, 1-(2-Cyanobenzyl)-5-ethyl-6-(3,5-dimethylphenoxy)-2,4-pyrimidinedione] | 60.47 µg/mL | – |
| > 100 µg/mL | 276 to 278 °C | Cc1cc(C)cc(Oc2c(C(C)C)c(=O)[nH]c(=O)n2Cc2ccccc2C#N)c1 [Example 40, 1-(2-Cyanobenzyl)-5-isopropyl-6-(3,5-dimethylphenoxy)-2,4-pyrimidinedione] | >100.00 µg/mL | – |
